Test results published in patent publication US9637483B2, “Heterocyclic compound” (TAKEDA PHARMACEUTICAL COMPANY LIMITED, priority 2013, dated 2017).

Assays:
Assay type in all cases: biochemical
JAK2 = biological target: T1, JAK2 (Homo sapiens, UniProt O60674); assay: JAK2 enzyme inhibition test (LANCE method); settings: 1 μM test compound; read-out: JAK2 enzyme inhibitory activity (%, 1 μM)
T1 construct: purchased Invitrogen
In short: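 Recombinant JAK2 (6 ng/mL solution) phosphorylated ULight-JAK1 peptide (300 nM solution) with ATP (45 μM solution) in pH 7.5 HEPES/MgCl2/DTT buffer for 1 hr at room temperature. After EDTA stop and europium anti-phosphotyrosine antibody for 1 hr, TR-FRET read at 665 nm; inhibition relative to enzyme-free wells as 100%.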

JAK3 = biological target: T2, JAK3 (Homo sapiens, UniProt P52333); assay: JAK3 enzyme inhibition test (LANCE method); settings: 1 μM test compound; read-out: JAK3 enzyme inhibitory activity (%, 1 μM)
T2 construct: purchased Invitrogen
T2 sequence (P52333 1-1124): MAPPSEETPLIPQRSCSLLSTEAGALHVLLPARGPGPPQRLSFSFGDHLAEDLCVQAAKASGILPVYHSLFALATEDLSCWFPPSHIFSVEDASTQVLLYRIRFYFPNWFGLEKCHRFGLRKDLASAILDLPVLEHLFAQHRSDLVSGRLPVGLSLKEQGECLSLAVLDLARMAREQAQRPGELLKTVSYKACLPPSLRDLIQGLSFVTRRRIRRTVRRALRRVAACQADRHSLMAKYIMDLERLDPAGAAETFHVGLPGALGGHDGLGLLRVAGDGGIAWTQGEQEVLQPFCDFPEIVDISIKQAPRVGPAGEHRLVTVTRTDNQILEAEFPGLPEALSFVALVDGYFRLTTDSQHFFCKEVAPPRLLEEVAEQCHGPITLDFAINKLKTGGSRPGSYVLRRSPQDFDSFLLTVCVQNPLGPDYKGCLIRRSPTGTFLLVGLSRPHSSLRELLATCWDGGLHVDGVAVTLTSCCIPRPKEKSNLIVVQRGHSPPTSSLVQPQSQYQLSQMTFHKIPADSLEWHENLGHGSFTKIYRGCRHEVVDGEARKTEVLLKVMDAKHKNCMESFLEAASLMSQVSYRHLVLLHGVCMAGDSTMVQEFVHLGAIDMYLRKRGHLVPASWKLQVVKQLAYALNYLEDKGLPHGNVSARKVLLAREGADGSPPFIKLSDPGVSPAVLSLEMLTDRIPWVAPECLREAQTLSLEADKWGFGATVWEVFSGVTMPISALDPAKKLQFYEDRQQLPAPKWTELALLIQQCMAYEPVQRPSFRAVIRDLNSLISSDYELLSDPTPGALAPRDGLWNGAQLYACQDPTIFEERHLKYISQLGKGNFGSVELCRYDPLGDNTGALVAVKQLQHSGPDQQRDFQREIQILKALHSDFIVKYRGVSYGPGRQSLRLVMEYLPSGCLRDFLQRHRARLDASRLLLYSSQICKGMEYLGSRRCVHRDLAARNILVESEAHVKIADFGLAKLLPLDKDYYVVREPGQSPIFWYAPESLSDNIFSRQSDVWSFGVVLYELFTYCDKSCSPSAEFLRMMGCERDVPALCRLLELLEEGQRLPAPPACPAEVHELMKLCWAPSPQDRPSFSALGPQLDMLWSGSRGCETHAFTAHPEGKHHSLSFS
In short: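 Recombinant JAK3 (12 ng/mL solution) with ULight-JAK1 peptide (300 nM solution) and ATP (15 μM solution) in HEPES pH 7.5 buffer, 1 h at room temperature. EDTA stop with Eu-anti-phosphotyrosine antibody; TR-FRET at 665 nm. Inhibition relative to enzyme-free wells as 100%.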

TYK2 = biological target: T3, TYK2 (Homo sapiens, UniProt P29597); assay: TYK2 enzyme inhibition test (LANCE method); settings: 1 μM test compound; read-out: TYK2 enzyme inhibitory activity (%, 1 μM)
T3 construct: purchased Invitrogen
T3 sequence (P29597 whole entry): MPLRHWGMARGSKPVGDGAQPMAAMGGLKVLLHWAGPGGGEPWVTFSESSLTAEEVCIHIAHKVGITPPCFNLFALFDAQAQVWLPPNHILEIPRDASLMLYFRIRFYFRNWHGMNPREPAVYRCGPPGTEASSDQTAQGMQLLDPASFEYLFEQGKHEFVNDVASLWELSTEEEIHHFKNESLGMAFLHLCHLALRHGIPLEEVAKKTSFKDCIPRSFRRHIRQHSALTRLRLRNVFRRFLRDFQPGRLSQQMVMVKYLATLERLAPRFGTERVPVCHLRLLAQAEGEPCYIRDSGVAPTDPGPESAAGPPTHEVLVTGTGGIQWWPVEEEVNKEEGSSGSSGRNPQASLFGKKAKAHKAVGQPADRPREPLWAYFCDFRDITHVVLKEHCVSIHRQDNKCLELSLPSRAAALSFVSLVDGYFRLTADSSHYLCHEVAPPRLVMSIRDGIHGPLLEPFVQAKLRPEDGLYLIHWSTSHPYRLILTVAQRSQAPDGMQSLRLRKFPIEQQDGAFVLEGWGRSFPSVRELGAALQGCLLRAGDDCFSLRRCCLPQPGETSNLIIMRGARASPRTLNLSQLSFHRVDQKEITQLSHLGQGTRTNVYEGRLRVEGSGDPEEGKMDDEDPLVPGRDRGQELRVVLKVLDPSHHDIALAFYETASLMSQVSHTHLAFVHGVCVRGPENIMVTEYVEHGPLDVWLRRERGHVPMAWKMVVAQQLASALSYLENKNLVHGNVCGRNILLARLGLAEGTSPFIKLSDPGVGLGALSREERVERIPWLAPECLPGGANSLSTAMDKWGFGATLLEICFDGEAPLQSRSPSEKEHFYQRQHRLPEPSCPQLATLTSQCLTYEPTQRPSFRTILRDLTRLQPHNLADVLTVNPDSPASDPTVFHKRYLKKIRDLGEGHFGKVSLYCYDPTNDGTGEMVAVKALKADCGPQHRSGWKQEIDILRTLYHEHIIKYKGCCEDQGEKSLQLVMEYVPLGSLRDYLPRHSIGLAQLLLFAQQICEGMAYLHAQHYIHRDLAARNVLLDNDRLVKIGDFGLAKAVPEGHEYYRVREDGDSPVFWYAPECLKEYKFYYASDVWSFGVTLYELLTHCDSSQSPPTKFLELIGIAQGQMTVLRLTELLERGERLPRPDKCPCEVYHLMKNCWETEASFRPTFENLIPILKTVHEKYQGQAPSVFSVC
In short: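 Recombinant TYK2 (375 ng/mL working solution) with ULight-JAK1 peptide (300 nM working solution) and ATP (30 μM working solution) in HEPES pH 7.5 buffer with MgCl2, EGTA, DTT, Tween20, BSA, reacted 1 h at RT. EDTA-stopped, Eu-anti-phosphotyrosine TR-FRET read at 665 nm; inhibition relative to enzyme-free wells as 100%.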

JAK1 = biological target: T4, JAK1 (Homo sapiens, UniProt P23458); assay: JAK1 enzyme inhibition test (LANCE method); settings: 1 μM test compound; read-out: JAK1 enzyme inhibitory activity (%, 1 μM)
T4 construct: purchased Invitrogen
T4 sequence (P23458 whole entry): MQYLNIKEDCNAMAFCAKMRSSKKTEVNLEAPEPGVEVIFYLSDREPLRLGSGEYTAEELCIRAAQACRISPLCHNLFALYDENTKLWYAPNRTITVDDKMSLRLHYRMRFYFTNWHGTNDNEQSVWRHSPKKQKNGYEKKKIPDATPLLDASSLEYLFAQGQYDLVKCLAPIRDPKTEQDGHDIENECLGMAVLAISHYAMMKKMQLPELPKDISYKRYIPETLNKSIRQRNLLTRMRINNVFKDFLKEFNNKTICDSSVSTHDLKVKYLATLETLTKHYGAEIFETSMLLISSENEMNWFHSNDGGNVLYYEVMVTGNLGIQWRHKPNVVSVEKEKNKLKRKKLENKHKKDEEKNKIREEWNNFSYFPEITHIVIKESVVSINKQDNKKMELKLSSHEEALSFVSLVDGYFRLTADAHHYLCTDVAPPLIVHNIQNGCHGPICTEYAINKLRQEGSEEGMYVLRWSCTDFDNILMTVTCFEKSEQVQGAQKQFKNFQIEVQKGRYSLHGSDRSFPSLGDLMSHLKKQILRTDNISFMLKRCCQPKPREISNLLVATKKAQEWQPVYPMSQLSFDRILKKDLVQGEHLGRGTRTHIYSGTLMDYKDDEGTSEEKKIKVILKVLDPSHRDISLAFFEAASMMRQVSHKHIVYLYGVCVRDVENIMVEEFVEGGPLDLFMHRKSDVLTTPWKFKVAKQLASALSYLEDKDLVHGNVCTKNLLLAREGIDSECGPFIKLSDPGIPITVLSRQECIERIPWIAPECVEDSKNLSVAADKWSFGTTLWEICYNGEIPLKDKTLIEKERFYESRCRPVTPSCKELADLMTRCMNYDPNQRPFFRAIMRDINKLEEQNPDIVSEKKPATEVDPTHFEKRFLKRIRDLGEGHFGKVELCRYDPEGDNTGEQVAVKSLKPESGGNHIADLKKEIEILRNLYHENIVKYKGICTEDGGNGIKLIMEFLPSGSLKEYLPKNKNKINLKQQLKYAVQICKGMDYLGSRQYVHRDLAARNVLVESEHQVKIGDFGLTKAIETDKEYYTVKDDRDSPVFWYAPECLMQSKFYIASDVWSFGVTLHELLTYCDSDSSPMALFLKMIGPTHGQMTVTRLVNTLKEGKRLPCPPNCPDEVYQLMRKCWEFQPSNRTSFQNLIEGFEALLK
In short: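 TR-FRET (LANCE) with ULight-JAK1 peptide (300 nM working solution) and ATP (150 μM working solution) in HEPES pH 7.5, MgCl2, EGTA, DTT buffer; 1 h at room temperature. EDTA stop plus Eu-anti-phosphotyrosine antibody, 665 nm read after 1 h. Inhibition relative to enzyme-free wells as 100%.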

T1 sequence (O60674 whole entry): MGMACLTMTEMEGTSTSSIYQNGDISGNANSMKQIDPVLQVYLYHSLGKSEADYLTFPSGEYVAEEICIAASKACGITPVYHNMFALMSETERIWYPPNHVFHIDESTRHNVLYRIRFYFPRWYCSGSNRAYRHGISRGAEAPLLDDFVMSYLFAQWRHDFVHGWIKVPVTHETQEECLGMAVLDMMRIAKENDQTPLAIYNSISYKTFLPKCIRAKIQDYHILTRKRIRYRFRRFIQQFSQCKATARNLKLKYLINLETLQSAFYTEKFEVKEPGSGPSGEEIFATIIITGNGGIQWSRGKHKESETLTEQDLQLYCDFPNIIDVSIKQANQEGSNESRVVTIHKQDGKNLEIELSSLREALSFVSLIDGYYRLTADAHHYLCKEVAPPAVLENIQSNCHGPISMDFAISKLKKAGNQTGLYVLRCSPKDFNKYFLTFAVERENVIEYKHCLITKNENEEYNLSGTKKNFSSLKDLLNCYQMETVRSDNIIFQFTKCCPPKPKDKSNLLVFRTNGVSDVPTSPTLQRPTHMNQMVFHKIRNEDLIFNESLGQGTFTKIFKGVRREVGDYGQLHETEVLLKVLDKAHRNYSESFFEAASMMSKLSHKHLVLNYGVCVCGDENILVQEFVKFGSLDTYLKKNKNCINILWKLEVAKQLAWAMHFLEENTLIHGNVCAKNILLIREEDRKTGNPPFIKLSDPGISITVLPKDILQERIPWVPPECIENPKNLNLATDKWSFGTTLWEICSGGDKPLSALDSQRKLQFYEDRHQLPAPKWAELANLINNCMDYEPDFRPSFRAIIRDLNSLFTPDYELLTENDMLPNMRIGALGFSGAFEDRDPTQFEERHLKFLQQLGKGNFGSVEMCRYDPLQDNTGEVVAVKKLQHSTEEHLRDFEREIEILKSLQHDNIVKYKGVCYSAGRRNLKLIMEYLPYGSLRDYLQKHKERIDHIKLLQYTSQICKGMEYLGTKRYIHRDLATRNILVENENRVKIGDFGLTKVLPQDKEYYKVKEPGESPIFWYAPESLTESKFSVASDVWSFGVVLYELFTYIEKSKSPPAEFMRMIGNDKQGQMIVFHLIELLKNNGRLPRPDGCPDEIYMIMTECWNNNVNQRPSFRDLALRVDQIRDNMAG

Row | SMILES | inhibition at 1 µM (JAK2) [%] | inhibition at 1 µM (JAK3) [%] | inhibition at 1 µM (TYK2) [%] | inhibition at 1 µM (JAK1) [%]
1 | CC(C)[C@H](C)n1cc(-c2cc(N3CCCC3)n(C)n2)c2[nH]nc(N)c2c1=O [Example 27, 3-amino-5-((2S)-3-methylbutan-2-yl)-7-(1-methyl-5-(pyrrolidin-1-yl)-1H-pyrazol-3-yl)-1,5-dihydro-4H-pyrazolo[4,3-c]pyridin-4-one] | 98 | 100 | 100 | 98
2 | CCn1nc(-c2cn([C@@H](C)C(C)C)c(=O)c3c(N)n[nH]c23)cc1N1CCS(=O)(=O)CC1 [Example 28, 3-amino-7-(5-(1,1-dioxidothiomorpholin-4-yl)-1-ethyl-1H-pyrazol-3-yl)-5-((2S)-3-methylbutan-2-yl)-1,5-dihydro-4H-pyrazolo[4,3-c]pyridin-4-one] | 90 | 95 | 98 | 78
3 | CC(C)[C@H](C)n1cc(-c2cc(N3CCS(=O)(=O)CC3)n(CC(F)(F)F)n2)c2[nH]nc(N)c2c1=O [Example 29, 3-amino-7-(5-(1,1-dioxidothiomorpholin-4-yl)-1-(2,2,2-trifluoroethyl)-1H-pyrazol-3-yl)-5-((2S)-3-methylbutan-2-yl)-1,5-dihydro-4H-pyrazolo[4,3-c]pyridin-4-one] | 49 | 67 | 93 | 47
4 | CC(C)[C@H](C)n1cc(-c2cc(N3CCOC(C)(C)C3)n(C)n2)c2[nH]nc(N)c2c1=O [Example 30, 3-amino-7-(5-(2,2-dimethylmorpholin-4-yl)-1-methyl-1H-pyrazol-3-yl)-5-((2S)-3-methylbutan-2-yl)-1,5-dihydro-4H-pyrazolo[4,3-c]pyridin-4-one] | 99 | 99 | 99 | 97
5 | CC1CN(c2cc(-c3cn([C@@H](C)C(C)C)c(=O)c4c(N)n[nH]c34)nn2C)CCO1 (stereo partly drawn) [Example 31, 3-amino-5-((2S)-3-methylbutan-2-yl)-7-(1-methyl-5-(2-methylmorpholin-4-yl)-1H-pyrazol-3-yl)-1,5-dihydro-4H-pyrazolo[4,3-c]pyridin-4-one] | 98 | 99 | 99 | 97
6 | CC(C)[C@H](C)n1cc(-c2cc(N3CCN4CCCC4C3)n(C)n2)c2[nH]nc(N)c2c1=O (stereo partly drawn) [Example 32, 3-amino-7-(5-(hexahydropyrrolo[1,2-a]pyrazin-2 (H)-yl)-1-methyl-1H-pyrazol-3-yl)-5-((2S)-3-methylbutan-2-yl)-1,5-dihydro-4H-pyrazolo[4,3-c]pyridin-4-one] | 98 | 99 | 99 | 96
7 | CC(C)[C@H](C)n1cc(-c2cc(N3CCC(C)(O)C3)n(C)n2)c2[nH]nc(N)c2c1=O (stereo partly drawn) [Example 33, 3-amino-7-(5-(3-hydroxy-3-methylpyrrolidin-1-yl)-1-methyl-1H-pyrazol-3-yl)-5-((2S)-3-methylbutan-2-yl)-1,5-dihydro-4H-pyrazolo[4,3-c]pyridin-4-one] | 98 | 99 | 99 | 96
8 | CC(C)[C@H](C)n1cc(-c2cc(N3CCC4(CC3)COC4)n(C)n2)c2[nH]nc(N)c2c1=O [Example 34, 3-amino-5-((2S)-3-methylbutan-2-yl)-7-(1-methyl-5-(2-oxa-7-azaspiro[3.5]non-7-yl)-1H-pyrazol-3-yl)-1,5-dihydro-4H-pyrazolo[4,3-c]pyridin-4-one] | 99 | 100 | 100 | 97
9 | CC(C)[C@H](C)n1cc(-c2cc(C3(O)CCOCC3)n(C)n2)c2[nH]nc(N)c2c1=O [Example 35, 3-amino-7-(5-(4-hydroxytetrahydro-2H-pyran-4-yl)-1-methyl-1H-pyrazol-3-yl)-5-((2S)-3-methylbutan-2-yl)-1,5-dihydro-4H-pyrazolo[4,3-c]pyridin-4-one] | 99 | 100 | 99 | 97
10 | COCCn1nc(-c2cn([C@@H](C)C(C)C)c(=O)c3c(N)n[nH]c23)cc1C(C)(C)O [Example 36, 3-amino-7-(5-(2-hydroxypropan-2-yl)-1-(2-methoxyethyl)-1H-pyrazol-3-yl)-5-((2S)-3-methylbutan-2-yl)-1,5-dihydro-4H-pyrazolo[4,3-c]pyridin-4-one] | 80 | 85 | 91 | 55
11 | CC(C)[C@H](C)n1cc(-c2cc(C3(O)CCC(F)(F)CC3)n(C)n2)c2[nH]nc(N)c2c1=O [Example 37, 3-amino-7-(5-(4,4-difluoro-1-hydroxycyclohexyl)-1-methyl-1H-pyrazol-3-yl)-5-((2S)-3-methylbutan-2-yl)-1,5-dihydro-4H-pyrazolo[4,3-c]pyridin-4-one] | 99 | 100 | 99 | 98
12 | CC(C)[C@H](C)n1cc(-c2cc(C3(O)CCC3)n(C)n2)c2[nH]nc(N)c2c1=O [Example 38, 3-amino-7-(5-(1-hydroxycyclobutyl)-1-methyl-1H-pyrazol-3-yl)-5-((2S)-3-methylbutan-2-yl)-1,5-dihydro-4H-pyrazolo[4,3-c]pyridin-4-one] | 99 | 100 | 100 | 99
13 | CC(C)[C@H](C)n1cc(-c2cc(C3=CCOCC3)n(C)n2)c2[nH]nc(N)c2c1=O [Example 39, 3-amino-7-(5-(3,6-dihydro-2H-pyran-4-yl)-1-methyl-1H-pyrazol-3-yl)-5-((2S)-3-methylbutan-2-yl)-1,5-dihydro-4H-pyrazolo[4,3-c]pyridin-4-one] | 99 | 100 | 100 | 99
14 | CNC(=O)c1ccc(-c2cc(-c3cn([C@@H](C)C(C)C)c(=O)c4c(N)n[nH]c34)nn2C)cc1 [Example 40, 4-(3-(3-amino-5-((2S)-3-methylbutan-2-yl)-4-oxo-4,5-dihydro-1H-pyrazolo[4,3-c]pyridin-7-yl)-1-methyl-1H-pyrazol-5-yl)-N-methylbenzamide] | 98 | 99 | 100 | 99
15 | CC(C)[C@H](C)n1cc(-c2cc(N3CCOCC3)n(C)n2)c2[nH]nc(N)c2c1=O [Example 41, 3-amino-5-((2S)-3-methylbutan-2-yl)-7-(1-methyl-5-(morpholin-4-yl)-1H-pyrazol-3-yl)-1,5-dihydro-4H-pyrazolo[4,3-c]pyridin-4-one] | 99 | 100 | 101 | 97
